Where a name gives a salt, the structure may show the parent alone.
Target: T1, HCV polymerase (Hepatitis C virus genotype 1b, UniProt P26663)
T1 construct: a region encoding NS5B (591 amino acids; J Virol 1991 Mar, 65(3), 1105-13) was amplified by PCR; 6 His (N); made in house; host or cells: Escherichia coli
Test: biochemical
Details: read-out: HCV polymerase inhibitory activity IC50

T1 sequence (P26663 2420-3010): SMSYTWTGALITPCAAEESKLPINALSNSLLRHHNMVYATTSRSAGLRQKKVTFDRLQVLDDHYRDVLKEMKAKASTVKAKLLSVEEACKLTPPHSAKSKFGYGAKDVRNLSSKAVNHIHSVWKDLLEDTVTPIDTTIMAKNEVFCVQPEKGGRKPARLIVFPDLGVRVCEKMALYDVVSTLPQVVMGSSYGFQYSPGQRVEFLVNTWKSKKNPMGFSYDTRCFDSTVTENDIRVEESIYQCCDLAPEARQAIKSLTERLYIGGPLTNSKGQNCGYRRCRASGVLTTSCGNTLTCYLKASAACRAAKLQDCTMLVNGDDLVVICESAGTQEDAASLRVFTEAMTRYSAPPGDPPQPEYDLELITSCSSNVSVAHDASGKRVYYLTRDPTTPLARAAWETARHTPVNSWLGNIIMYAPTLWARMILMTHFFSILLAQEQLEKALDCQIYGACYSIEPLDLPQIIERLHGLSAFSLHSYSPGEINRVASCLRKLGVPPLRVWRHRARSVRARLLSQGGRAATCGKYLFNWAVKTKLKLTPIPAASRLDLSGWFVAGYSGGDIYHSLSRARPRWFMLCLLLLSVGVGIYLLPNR

O=C(O)c1ccc2c(c1)nc(-c1ccc(OCc3cc(Cl)cc(Cl)c3)cc1)n2C1CCCCC1 [Example 81, 1-cyclohexyl-2-[4-(3,5-dichlorobenzyloxy)phenyl]benzimidazole-5-carboxylic acid]
IC50: 180 nM

CC(C)NC(=O)c1ccc(-c2ccc(Cl)cc2)c(COc2ccc(-c3nc4cc(C(=O)O)ccc4n3C3CCCCC3)cc2)c1 [Example 330, 2-{4-[2-(4-chlorophenyl)-5-(isopropylcarbamoyl)benzyloxy]phenyl}-1-cyclohexylbenzimidazole-5-carboxylic acid hydrochloride]
IC50: 11 nM

Cc1cnc(-c2ccc(-c3ccc(Cl)cc3)c(COc3ccc(-c4nc5cc(C(=O)O)ccc5n4C4CCCCC4)cc3)c2)s1 [Example 366, 2-{4-[2-(4-chlorophenyl)-5-(5-methylthiazol-2-yl)benzyloxy]-phenyl}-1-cyclohexylbenzimidazole-5-carboxylic acid hydrochloride]
IC50: 24 nM

CC(=O)c1ccc(-c2ccc(Cl)cc2)c(COc2ccc(-c3nc4cc(C(=O)O)ccc4n3C3CCCCC3)cc2)c1 [Example 342, 2-{4-[5-acetyl-2-(4-chlorophenyl)benzyloxy]phenyl}-1-cyclohexylbenzimidazole-5-carboxylic acid hydrochloride]
IC50: 15 nM

O=C(O)c1ccc2c(c1)nc(-c1ccc(OCCc3cccc(OCc4ccccc4)c3)cc1)n2C1CCCCC1 [Example 139, 2-{4-[2-(3-benzyloxyphenyl)ethoxy]phenyl}-1-cyclohexylbenzimidazole-5-carboxylic acid]
IC50: 260 nM

CS(=O)(=O)N1CCC(COc2cccc(Oc3ccc(-c4nc5cc(C(=O)O)ccc5n4C4CCCCC4)cc3)c2)CC1 [Example 198, 1-cyclohexyl-2-{4-[3-{(1-methanesulfonyl-4-piperidyl)methoxy}-phenoxy]phenyl}benzimidazole-5-carboxylic acid]
IC50: 44 nM

O=C(O)c1ccc2c(c1)nc(-c1ccc(OCc3cc(C(=O)NCc4cccnc4)ccc3-c3ccc(Cl)cc3)cc1)n2C1CCCCC1 [Example 322, 2-{4-[2-(4-chlorophenyl)-5-{N-(3-pyridylmethyl)carbamoyl}-benzyloxy]phenyl}-1-cyclohexylbenzimidazole-5-carboxylic acid dihydrochloride]
IC50: 16 nM

O=C(O)c1ccc2c(c1)nc(-c1ccc(OCc3cc(Cl)ccc3-c3ccccc3C(F)(F)F)cc1)n2C1CCCCC1 [Example 151, 2-{4-[3-chloro-6-(2-trifluoromethylphenyl)benzyloxy]phenyl}-1-cyclohexylbenzimidazole-5-carboxylic acid]
IC50: 200 nM

O=C(O)c1ccc2c(c1)nc(-c1ccc(OCc3cc(Cl)ccc3-c3cccs3)cc1)n2C1CCCCC1 [Example 168, 2-{4-[3-chloro-6-(2-thienyl)benzyloxy]phenyl}-1-cyclohexylbenzimidazole-5-carboxylic acid]
IC50: 78 nM

CN(C)C(=O)c1ccc(-c2ccc(C(F)(F)F)cc2)c(COc2ccc(-c3nc4cc(C(=O)O)ccc4n3C3CCCCC3)cc2)c1 [Example 266, 1-cyclohexyl-2-{4-[3-dimethylcarbamoyl-6-(4-trifluoromethylphenyl)benzyloxy]phenyl}benzimidazole-5-carboxylic acid hydrochloride]
IC50: 18 nM

O=C(O)c1ccc(C(Oc2ccc(-c3nc4cc(C(=O)O)ccc4n3C3CCCCC3)c(F)c2)c2ccc(C(=O)O)cc2)cc1 [Example 312, 2-{4-[bis(4-carboxyphenyl)methoxy]-2-fluorophenyl}-1-cyclohexylbenzimidazole-5-carboxylic acid]
IC50: 23 nM

CC(C)NC(=O)c1ccc(-c2ccc(Cl)cc2)c(COc2ccc(-c3nc4cc(C(=O)O)ccc4n3C3CCSCC3)c(F)c2)c1 [Example 418, 2-{4-[2-(4-chlorophenyl)-5-(isopropylcarbamoyl)benzyloxy]-2-fluorophenyl}-1-(tetrahydrothiopyran-4-yl)benzimidazole-5-carboxylic acid hydrochloride]
IC50: 16 nM

CN(C)C(=O)Nc1ccc(-c2ccc(Cl)cc2)c(COc2ccc(-c3nc4cc(C(=O)O)ccc4n3C3CCCCC3)c(F)c2)c1 [Example 391, 2-{4-[2-(4-chlorophenyl)-5-{(dimethylcarbamoyl)amino}benzyloxy]-2-fluorophenyl}-1-cyclohexylbenzimidazole-5-carboxylic acid hydrochloride]
IC50: 17 nM

O=C(O)c1ccc2c(c1)nc(-c1ccc(OCCc3ccc4ccccc4c3)cc1)n2C1CCCCC1 [Example 85, 1-cyclohexyl-2-{4-[2-(2-naphthyl)ethoxy]phenyl}benzimidazole-5-carboxylic acid]
IC50: 170 nM

O=C(O)c1ccc2c(c1)nc(-c1ccc(Oc3cccc(OCc4ccccc4Cl)c3)cc1)n2C1CCCCC1 [Example 213, 2-{4-[3-(2-chlorobenzyloxy)phenoxy]phenyl}-1-cyclohexylbenzimidazole-5-carboxylic acid]
IC50: 100 nM

CONC(=O)c1ccc(-c2ccc(Cl)cc2)c(COc2ccc(-c3nc4cc(C(=O)O)ccc4n3C3CCCCC3)c(F)c2)c1 [Example 382, 2-{4-[2-(4-chlorophenyl)-5-(methoxycarbamoyl)benzyloxy]-2-fluorophenyl}-1-cyclohexylbenzimidazole-5-carboxylic acid hydrochloride]
IC50: 15 nM

CS(=O)(=O)Nc1ccc(-c2ccc(Cl)cc2)c(COc2ccc(-c3nc4cc(C(=O)O)ccc4n3C3CCCCC3)c(F)c2)c1 [Example 455, 2-[4-{2-(4-chlorophenyl)-5-(methylsulfonylamino)benzyloxy}-2-fluorophenyl]-1-cyclohexylbenzimidazole-5-carboxylic acid hydrochloride]
IC50: 15 nM

O=C(O)c1ccc2c(c1)nc(-c1ccc(OCc3cc(N4CCCC4=O)c(F)cc3-c3ccc(Cl)cc3)cc1F)n2C1CCCCC1 [Example 454, 2-[4-{2-(4-chlorophenyl)-4-fluoro-5-(2-oxopyrrolidin-1-yl)benzyloxy}-2-fluorophenyl]-1-cyclohexylbenzimidazole-5-carboxylic acid hydrochloride]
IC50: 13 nM

Cc1noc(-c2ccc(-c3ccc(Cl)cc3)c(COc3ccc(-c4nc5cc(C(=O)O)ccc5n4C4CCCCC4)cc3)c2)n1 [Example 349, 2-{4-[2-(4-chlorophenyl)-5-(3-methyl-1,2,4-oxadiazol-5-yl)benzyloxy]phenyl}-1-cyclohexylbenzimidazole-5-carboxylic acid hydrochloride]
IC50: 21 nM

CCCNC(=O)c1ccc(-c2ccc(Cl)cc2)c(COc2ccc(-c3nc4cc(C(=O)O)ccc4n3C3CCCCC3)c(F)c2)c1 [Example 389, 2-{4-[2-(4-chlorophenyl)-5-(propylcarbamoyl)benzyloxy]-2-fluorophenyl}-1-cyclohexylbenzimidazole-5-carboxylic acid hydrochloride]
IC50: 12 nM

CC(C)NC(=O)c1ccc(-c2ccc(Cl)cc2)c(COc2ccc(-c3nc4cc(C(=O)O)ccc4n3C3CCCC3)cc2)c1 [Example 413, 2-{4-[2-(4-chlorophenyl)-5-(isopropylcarbamoyl)benzyloxy]phenyl}-1-cyclopentylbenzimidazole-5-carboxylic acid hydrochloride]
IC50: 26 nM

CCOC(=O)c1ccn2c(C3CCCCC3)c(-c3ccc(OCc4ccccc4)cc3)nc2c1 [Example 601, ethyl 2-(4-benzyloxyphenyl)-3-cyclohexylimidazo-[1,2-a]pyridine-7-carboxylate]
IC50: 320 nM

O=C(O)c1ccc2c(c1)nc(-c1ccc(OCc3cc(-c4nnn[nH]4)ccc3-c3ccc(Cl)cc3)cc1)n2C1CCCCC1 [Example 367, 2-{4-[2-(4-chlorophenyl)-5-tetrazol-5-ylbenzyloxy]phenyl}-1-cyclohexylbenzimidazole-5-carboxylic acid hydrochloride]
IC50: 11 nM

O=C(O)c1ccc2c(c1)nc(-c1ccc(OCc3cc(C(=O)N4CCC(O)CC4)sc3-c3ccc(F)cc3)cc1F)n2C1CCCCC1 [Example 433, 2-{4-[{2-(4-fluorophenyl)-5-(4-hydroxypiperidin-1-ylcarbonyl)thiophen-3-yl}methoxy]-2-fluorophenyl}-1-cyclohexylbenzimidazole-5-carboxylic acid hydrochloride]
IC50: 14 nM

O=C(O)c1ccc2c(c1)nc(-c1ccc(OCc3ccc(C(F)(F)F)cc3)cc1)n2C1CCCC1 [Example 47, 1-cyclopentyl-2-[4-(4-trifluoromethylbenzyloxy)phenyl]benzimidazole-5-carboxylic acid]
IC50: 540 nM

O=C(O)c1cc(OCc2ccncc2)cc(Oc2ccc(-c3nc4cc(C(=O)O)ccc4n3C3CCCCC3)cc2)c1 [Example 260, 1-cyclohexyl-2-{4-[3-carboxy-5-(4-pyridylmethoxy)phenoxy]-phenyl}benzimidazole-5-carboxylic acid dihydrochloride]
IC50: 270 nM

O=C(O)c1ccc2c(c1)nc(-c1ccc(OCc3ccc(Cl)cc3)cc1)n2C1CCCC1 [Example 45, 2-[4-(4-chlorobenzyloxy)phenyl]-1-cyclopentylbenzimidazole-5-carboxylic acid]
IC50: 400 nM

CS(=O)(=O)Nc1ccc(-c2ccc(Cl)cc2)c(COc2ccc(-c3nc4cc(C(=O)O)ccc4n3C3CCCCC3)cc2)c1 [Example 283, 2-{4-[2-(4-chlorophenyl)-5-methanesulfonylaminobenzyloxy]phenyl}-1-cyclohexylbenzimidazole-5-carboxylic acid]
IC50: 14 nM

CC(C)CNC(=O)c1ccc(-c2ccc(Cl)cc2)c(COc2ccc(-c3nc4cc(C(=O)O)ccc4n3C3CCCCC3)c(F)c2)c1 [Example 380, 2-{4-[2-(4-chlorophenyl)-5-(isobutylcarbamoyl)benzyloxy]-2-fluorophenyl}-1-cyclohexylbenzimidazole-5-carboxylic acid hydrochloride]
IC50: 23 nM

Cc1nc(COc2cccc(Oc3ccc(-c4nc5cc(C(=O)O)ccc5n4C4CCCCC4)cc3)c2)cs1 [Example 220, 1-cyclohexyl-2-{4-[3-{(2-methyl-4-thiazolyl)methoxy}phenoxy]-phenyl}benzimidazole-5-carboxylic acid]
IC50: 73 nM
